Experiment: Agonist activity at human PGI2 receptor assessed as inhibition of ADP-induced platelet aggregation

Q: For `CC(C)N(CCCCOCC(=O)NS(C)(=O)=O)c1cnc(-c2ccccc2)c(-c2ccccc2)n1` [ACT-293987], which IC50 is on record?
A: 6.4 µM

Reference: BindingDB's records for PubMed 33314936 (n/a, 2020)
